The values that follow come from patent US20250115598A1 (Anaxis Pharma Pty Ltd, priority 2021, published 2025).

In experiment [1] the test system is Immortalised Mouse Dermal Fibroblasts (MDFs). Kind of experiment: Cellular assay: inhibition of TSI induced necroptosis, CellTitre-Glo viability. Particulars: Mus musculus, Fibroblast; MDF, 3 hours TSI cocktail, Table 27; read-out: Inhibition of TSI-induced necroptosis (IC50 cell-based assay) in MDF. The procedure, abridged: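 Necroptosis induced for 3 h with TSI: rhTNF 100 ng/ml, Smac mimetic 500 nM, caspase inhibitor IDN-6556 10 μM. Mouse dermal fibroblasts had received compound (36 μM top, ten three-fold steps) 30 min beforehand. ATP-based viability scaled between untreated and TSI-only wells; IC50 taken as 4-parameter curve inflection.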

The target of a further experiment is human MLKL (full length) (Homo sapiens (Human), UniProt Q8NB16). Kind of experiment: KINOMEscan binding assay, human MLKL (full length). Particulars: hMLKL, Table 25; read-out: MLKL (KD). The procedure, abridged:
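KINOMEscan competition binding using kinase-tagged T7 phage or HEK-293-produced DNA-tagged protein captured on ligand beads, with eluted protein quantified by qPCR. Compounds were run as an 11-point 3-fold series, top 30,000 nM, in 1% DMSO. Kd was fitted with the Hill equation, slope fixed at −1.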

The target of a further experiment is endogenous MLKL in MDF (Mus musculus (Mouse), UniProt Q9D2Y4). The experiment is described as follows: Degradation assay: endogenous MLKL in MDF (western blot). The conditions noted are these: MDF cells, 24 h incubation with compound, MLKL adjusted for loading with GAPDH, normalized to DMSO only control, read-out: Degradation of endogenous MLKL in MDF (DC50 cell-based assay). The procedure: Degradation Assay: Screening Compounds Procedure to Evaluate the Activity of Compounds in Degrading Endogenous MLKL in Human and Mouse Cell
The mouse dermal fibroblast (MDF) cell line was seeded the day before the experiment in a 24-well plate at a cell density of […] per well in a volume of 0.5 mL per well and left to attach overnight. The human monocyte cell line (U937) was seeded on the day of the experiment in a 24-well plate at a cell density of […] per well in a volume of 0.5 mL per well.
The compound was diluted in DMSO with a starting concentration of 10 mM and titrated stepwise with a dilution of 1:5. 0.5 μL of the compound dilution was added to the appropriate well to achieve a final concentration of 10; 2; 0.4; 0.08 and 0.016 μM. A DMSO only well was included as control.
The cells were incubated for 24 h in the presence of the compound at 37° C. and 10% CO2.
After the 24 h incubation period, the medium was removed and cells washed with 0.5 mL PBS. The cells were then lysed directly in 60 μL of 1×SDS gel loading buffer.
The cell lysate was heat-denatured at […] for 10 min. 10 μL of lysate per well were run on 18-well 4-15% Criterion TGX stain free gels (BIO-RAD). The proteins were then transferred onto nitrocellulose membrane with a wet transfer protocol in the Criterion Blotter (BIO-RAD).
Membranes were blocked with 5% skim milk in TBST. Primary antibody against MLKL (clone 3H1, MABC604 Merck) was used at 1:2000 dilution in TBST with 1% BSA and left shaking over night at 4° C. After washes with TBST, the membranes were incubated with goat anti-rat IgG HRP-conjugated antibody (Southern Biotech) in 1% skim milk TBST at 1:10000 dilution for 1 h at room temperature. After TBST washes the bands were imaged on the ChemiDoc MP Imaging System (BIO-RAD) with Immobilion Western Chemiluminescent HRP Substrate Forte (Millipore). The loading control GAPDH was probed for with rabbit anti-GAPDH (CST 14C10) at 1:2000 dilution in 1% BSA TBST over night at 4° C. TBST washes were followed by incubation with goat anti-rabbit IgG HRP-conjugated antibody (Southern Biotech) in 1% skim milk TBST at 1:10000 dilution for 1 h at room temperature followed by TBST washes. The signal was detected as described above.
The band intensity was measured in the ImageLab Software (BIO-RAD) and the MLKL values adjusted for loading with GAPDH. The percentage of degradation was calculated by normalizing the compound treated values to the DMSO only control.
On the technique in general: A western blot detects proteins with antibodies after separation by electrophoresis.

Chain of endogenous MLKL in MDF (Q9D2Y4 whole entry): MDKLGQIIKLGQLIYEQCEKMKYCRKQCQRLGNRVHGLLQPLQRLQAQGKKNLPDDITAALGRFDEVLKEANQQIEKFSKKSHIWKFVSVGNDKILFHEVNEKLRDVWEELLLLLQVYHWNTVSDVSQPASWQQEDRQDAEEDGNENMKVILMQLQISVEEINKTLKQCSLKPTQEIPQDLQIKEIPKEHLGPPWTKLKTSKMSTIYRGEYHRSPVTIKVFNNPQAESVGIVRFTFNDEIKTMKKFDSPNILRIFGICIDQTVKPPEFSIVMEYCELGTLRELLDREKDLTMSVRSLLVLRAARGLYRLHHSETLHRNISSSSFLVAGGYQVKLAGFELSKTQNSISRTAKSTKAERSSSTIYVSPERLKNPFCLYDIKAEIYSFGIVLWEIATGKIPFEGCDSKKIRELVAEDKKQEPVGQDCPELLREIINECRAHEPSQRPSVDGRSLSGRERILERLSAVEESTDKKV
Chain of human MLKL (full length) (Q8NB16 whole entry): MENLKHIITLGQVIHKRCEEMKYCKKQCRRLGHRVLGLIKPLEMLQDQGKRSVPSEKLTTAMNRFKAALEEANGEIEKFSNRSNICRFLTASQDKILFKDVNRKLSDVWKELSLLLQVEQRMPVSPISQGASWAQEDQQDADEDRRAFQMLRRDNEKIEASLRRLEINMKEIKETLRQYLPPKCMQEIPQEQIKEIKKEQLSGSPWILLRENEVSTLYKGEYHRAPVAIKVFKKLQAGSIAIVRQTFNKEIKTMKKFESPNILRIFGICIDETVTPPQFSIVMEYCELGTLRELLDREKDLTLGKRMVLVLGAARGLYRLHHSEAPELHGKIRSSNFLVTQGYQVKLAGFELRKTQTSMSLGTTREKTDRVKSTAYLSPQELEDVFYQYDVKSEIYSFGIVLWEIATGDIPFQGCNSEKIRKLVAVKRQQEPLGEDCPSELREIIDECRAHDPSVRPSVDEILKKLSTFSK

On to `C[C@H](Oc1cc(-c2nn(C)c3c(-c4cnn(C5CCN(C(=O)[C@H]6C[C@@H](Nc7cccc8c7C(=O)N(C7CCC(=O)NC7=O)C8=O)C6)CC5)c4)cnc(N)c23)ccc1NS(=O)(=O)C(F)F)c1ccc(F)cc1` (stereo partly drawn) [Compound 1055, N-{4-[4-amino-1-methyl-7-(1-{1-[(cis)-3-{[2-(2,6-dioxopiperidin-3-yl)-1,3-dioxo-2,3-dihydro-1H-isoindol-4-yl]amino}cyclobutane-carbonyl]piperidin-4-yl}-1H-pyrazol-4-yl)-1H-pyrazolo[4,3-c]pyridin-3-yl]-2-[(1S)-1-(4-fluorophenyl)ethoxy]phenyl}-1,1-difluoromethanesulfonamide], for which the IC50 (as a rule, the concentration that gives 50% inhibition) in experiment [1] was less than 1000 nM. Further, the Kd (as a rule, the equilibrium constant for the complex coming apart) at human MLKL (full length) lay within 10 to 1000 nM. The DC50 (in general, the concentration at which degradation of the target reaches its halfway point) at endogenous MLKL in MDF is less than 1000 nM.
Turning to `C[C@H](Oc1cc(-c2nn(C)c3c(-c4cnn(C5CCN(C(=O)OCC6CCN(c7cccc8c7C(=O)N(C7CCC(=O)NC7=O)C8=O)CC6)CC5)c4)cnc(N)c23)ccc1NS(=O)(=O)C(F)F)c1ccc(F)cc1` (stereo partly drawn) [Compound 1105, {1-[2-(2,6-dioxopiperidin-3-yl)-1,3-dioxo-2,3-dihydro-1H-isoindol-4-yl]piperidin-4-yl}methyl4-(4-{4-amino-3-[4-(difluoromethanesulfonamido)-3-[(1 S)-1-(4-fluorophenyl)ethoxy]phenyl]-1-methyl-1H-pyrazolo[4,3-c]pyridin-7-yl}-1H-pyrazol-1-yl)piperidine-1-carboxylate], the IC50 in experiment [1] is less than 1000 nM. The Kd at human MLKL (full length) is 10 to 1000 nM. For the same molecule, the DC50 at endogenous MLKL in MDF is less than 1000 nM.
In the case of `C[C@H](Oc1cc(-c2nn(C)c3c(-c4cnn(C5CCN(C(=O)[C@H]6C[C@H](Nc7cccc8c7C(=O)N(C7CCC(=O)NC7=O)C8=O)C6)C(C)(C)C5)c4)cnc(N)c23)ccc1NS(=O)(=O)C(F)F)c1ccc(F)cc1` (stereo partly drawn) [Compound 1116, N-{4-[4-amino-7-(1-{2,2-dimethyl-1-[(trans)-3-{[2-(2,6-dioxopiperidin-3-yl)-1,3-dioxo-2,3-dihydro-1H-isoindol-4-yl]amino}cyclobutanecarbonyl]piperidin-4-yl}-1H-pyrazol-4-yl)-1-methyl-1H-pyrazolo[4,3-c]pyridin-3-yl]-2-[(1S)-1-(4-fluorophenyl)ethoxy]phenyl}-1,1-difluoromethanesulfonamide], the IC50 in experiment [1] lay in the range of 1000 to 10000 nM. Also, the Kd on human MLKL (full length) is less than 10 nM. In addition, at endogenous MLKL in MDF, the 50% degradation concentration (DC50) is less than 1000 nM.
Consider `C[C@H](Oc1cc(-c2nn(C)c3c(-c4cnn(C5CCN(C(=O)CCC6CCN(c7cccc8c7C(=O)N(C7CCC(=O)NC7=O)C8=O)CC6)CC5)c4)cnc(N)c23)ccc1NS(=O)(=O)C(F)F)c1ccc(F)cc1` (stereo partly drawn) [Compound 1043, N-[4-(4-amino-7-{1-[1-(3-{1-[2-(2,6-dioxopiperidin-3-yl)-1,3-dioxo-2,3-dihydro-1H-isoindol-4-yl]piperidin-4-yl}propanoyl)piperidin-4-yl]-1H-pyrazol-4-yl}-1-methyl-1H-pyrazolo[4,3-c]pyridin-3-yl)-2-[(1S)-1-(4-fluorophenyl)ethoxy]phenyl]-1,1-difluoromethanesulfonamide], for which the IC50 in experiment [1] is less than 1000 nM. Further, on human MLKL (full length), the Kd lay in the range of 10 to 1000 nM. Moreover, the half-maximal degradation concentration (DC50) at endogenous MLKL in MDF was less than 1000 nM.
On to `C[C@H](Oc1cc(-c2nn(C)c3c(-c4cnn(C5CCN(CCN6CCCC(COc7cccc8c7C(=O)N(C7CCC(=O)NC7=O)C8=O)C6)CC5)c4)cnc(N)c23)ccc1NS(=O)(=O)C(F)F)c1ccc(F)cc1` (stereo partly drawn) [Compound 1132, N-(4-{4-amino-7-[1-(1-{2-[3-({[2-(2,6-dioxopiperidin-3-yl)-1,3-dioxo-2,3-dihydro-1H-isoindol-4-yl]oxy}methyl)piperidin-1-yl]ethyl}piperidin-4-yl)-1H-pyrazol-4-yl]-1-methyl-1H-pyrazolo[4,3-c]pyridin-3-yl}-2-[(1S)-1-(4-fluorophenyl)ethoxy]phenyl)-1,1-difluoromethanesulfonamide], for which the IC50 in experiment [1] was less than 1000 nM. Moreover, the Kd at human MLKL (full length) lay in the range of 10 to 1000 nM. The DC50 at endogenous MLKL in MDF was less than 1000 nM.
Turning to `CCS(=O)(=O)Nc1ccc(-c2nn(C)c3c(-c4cnn(C5CCN(C(=O)[C@H]6C[C@H](Nc7cccc8c7C(=O)N(C7CCC(=O)NC7=O)C8=O)C6)CC5)c4)cnc(N)c23)cc1F` (stereo partly drawn) [Compound 1102, N-{4-[4-amino-1-methyl-7-(1-{1-[(trans)-3-{[2-(2,6-dioxopiperidin-3-yl)-1,3-dioxo-2,3-dihydro-1H-isoindol-4-yl]amino}cyclobutanecarbonyl]piperidin-4-yl}-1H-pyrazol-4-yl)-1H-pyrazolo[4,3-c]pyridin-3-yl]-2-fluorophenyl}ethane-1-sulfonamide], the IC50 in experiment [1] is less than 1000 nM. At human MLKL (full length), the Kd was less than 10 nM. Moreover, the DC50 on endogenous MLKL in MDF was less than 1000 nM.
For the molecule `C[C@H](Oc1cc(-c2nn(C)c3c(-c4cnn(C5CCN(C(=O)[C@H]6C[C@H](N(C)c7ccc8c(c7)C(=O)N(C7CCC(=O)NC7=O)C8=O)C6)CC5)c4)cnc(N)c23)ccc1NS(=O)(=O)C(F)F)c1ccc(F)cc1` (stereo partly drawn) [Compound 1106, N-{4-[4-amino-1-methyl-7-(1-{1-[(trans)-3-{[2-(2,6-dioxopiperidin-3-yl)-1,3-dioxo-2,3-dihydro-1H-isoindol-5-yl](methyl)amino}cyclobutanecarbonyl]piperidin-4-yl}-1H-pyrazol-4-yl)-1H-pyrazolo[4,3-c]pyridin-3-yl]-2-[(1S)-1-(4-fluorophenyl)ethoxy]phenyl}-1,1-difluoromethanesulfonamide], in experiment [1], the IC50 is less than 1000 nM. The Kd at human MLKL (full length) was less than 10 nM. In addition, on endogenous MLKL in MDF, the half-maximal degradation concentration (DC50) was less than 1000 nM.
Consider `CN[C@@H](C)C(=O)N[C@H](C(=O)N1CC(NC(=O)CCCCCCCCn2cc(-c3cnc(N)c4c(-c5ccc(NS(=O)(=O)C(F)F)c(O[C@@H](C)c6ccc(F)cc6)c5)nn(C)c34)cn2)C[C@H]1C(=O)Nc1c(F)cccc1F)C(C)(C)C` (stereo partly drawn) [Compound 1090, (2S)-4-[9-(4-{4-amino-3-[4-(difluoromethanesulfonamido)-3-[(1S)-1-(4-fluorophenyl)ethoxy]phenyl]-1-methyl-1H-pyrazolo[4,3-c]pyridin-7-yl}-1H-pyrazol-1-yl)nonanamido]-N-(2,6-difluorophenyl)-1-[(2S)-3,3-dimethyl-2-[(2S)-2-(methylamino)propanamido]butanoyl]pyrrolidine-2-carboxamide], for which, in experiment [1], the IC50 lay in the range of 1000 to 10000 nM. Further, the equilibrium dissociation constant (Kd) on human MLKL (full length) was less than 10 nM. Besides, the DC50 on endogenous MLKL in MDF was 1000 to 10000 nM.
Take `C[C@H](Oc1cc(-c2nn(C)c3c(-c4cnn(C5CCN(C(=O)[C@H]6C[C@H](Nc7cccc8c7C(=O)N(C7CCC(=O)NC7=O)C8=O)C6)C6(CC6)C5)c4)cnc(N)c23)ccc1NS(=O)(=O)C(F)F)c1ccc(F)cc1` (stereo partly drawn) [Compound 1107, N-{4-[4-amino-1-methyl-7-(1-{4-[(1r,3r)-3-{[2-(2,6-dioxopiperidin-3-yl)-1,3-dioxo-2,3-dihydro-1H-isoindol-4-yl]amino}cyclobutanecarbonyl]-4-azaspiro[2.5]octan-7-yl}-1H-pyrazol-4-yl)-1H-pyrazolo[4,3-c]pyridin-3-yl]-2-[(1S)-1-(4-fluorophenyl)ethoxy]phenyl}-1,1-difluoromethanesulfonamide]: the IC50 in experiment [1] was less than 1000 nM. For the same molecule, the Kd at human MLKL (full length) lay within 10 to 1000 nM. For the same molecule, the DC50 on endogenous MLKL in MDF is less than 1000 nM.
